Data from patent publication US9902759B2, “BH3 peptides and methods of use thereof” (Dana-Farber Cancer Institute, Inc., priority 2002, dated 2018).
Values belong to the molecule of their own block, whether it stands above or below them. Ends that are not written are not given here.

Assays:
[1] = system: BCL-2 overexpressing mitochondria; assay: Cytochrome c release from BCL-2 overexpressing FL5.12 mitochondria; assay type: biochemical; settings: for cytochrome c release from mitochondria with overexpressed BCL-2, agent alone: 10 μM BIDBH3, 1 μM BIMBH3, 30 nM myrBID; for capacity to overcome BCL-2 protection: with subliminal myrBID (30 nM)
Method: (§1) Mouse liver mitochondria were isolated from age-matched wt or Bak −/− mice. Livers were diced, subjected to Dounce rotary Teflon pestle disruption, then homogenized using a Kinematica Polytron homognizer. Following suspension in isolation buffer (250 mM sucrose, 10 mM Tris-HCl pH 7.4, 0.1 mM EGTA), mitochondria were isolated by differential centrifugation steps, followed by two washes in isolation buffer. Mitochondria from FL5.12 cells were isolated by cell disruption followed by differential centrifugation and washing as above. Cell disruption was performed either by a Kinematika Polytron homogenizer or by a combination of Dounce homogenization followed by 6-10 expulsions through a 27 gauge needle.
(§2) Mitochondria at a protein concentration of 0.5 mg/ml were treated at room temperature in experimental buffer (125 mM KCl, 10 mM Tris-MOPS pH 7.4, 5 mM glutamate, 2.5 mM malate, 1 mM KPO4, 10 µM EGTA-Tris pH 7.4). Percent release was quantitated using a colorimetric ELISA (MCTC0, R&D Systems). In all experiments, treatments with DMSO were used as a control for solvent activity.

[2] = target: T1, BAX (Mus musculus, UniProt Q07813); assay: BAX oligomerization in mitochondria from FL5.12 cells, BMH cross-linking; assay type: biochemical; settings: 100 μM peptide
T1 construct: mitochondria isolated from cultured FL5.12 cells, which contain both BAX and BAK; endogenous in cells; host or cells: mitochondria isolated from FL5.12 cells
T1 sequence (Q07813 whole entry): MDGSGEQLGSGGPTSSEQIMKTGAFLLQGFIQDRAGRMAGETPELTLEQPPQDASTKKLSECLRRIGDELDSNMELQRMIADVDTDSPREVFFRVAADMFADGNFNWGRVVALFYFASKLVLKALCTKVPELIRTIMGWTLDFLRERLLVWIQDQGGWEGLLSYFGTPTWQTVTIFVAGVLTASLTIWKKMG
Method: (§3) 1,6-Bismaleimidohexane was obtained from Pierce (#22330). A 10 mM stock solution in DMSO was added to treated mitochondrial suspensions at a 1:11 dilution. Cross-linking took place for 30 minutes at room temperature, followed by centrifugation to pellet mitochondria. Pellets were dissolved in NuPAGE loading buffer (Invitrogen).
(§4) Antibodies used for immunoblot analysis included anti-cytochrome c (75981A, Pharmingen), anti-BAK (Upstate Biotechnology), and anti-BAX (N-20, Santa Cruz). Antibody detection was accomplished using enhanced chemiluminescence (Western Lightning, Perkin-Elmer).

[3] = target: T2, BAK (Mus musculus, UniProt O08734); assay: BAK oligomerization, BMH cross-linking and immunoblot; assay type: biochemical; settings: 100 μM peptide, cross-linker BMH
T2 construct: capable of inducing an allosteric change in mitochondrial-resident BAK or BAX; from tissue
T2 sequence (O08734 1-209): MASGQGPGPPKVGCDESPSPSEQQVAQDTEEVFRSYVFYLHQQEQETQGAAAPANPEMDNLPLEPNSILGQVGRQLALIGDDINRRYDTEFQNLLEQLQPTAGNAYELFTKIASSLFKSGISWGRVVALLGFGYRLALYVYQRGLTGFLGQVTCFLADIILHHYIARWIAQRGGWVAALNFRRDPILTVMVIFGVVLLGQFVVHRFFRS
Method: as §3, §4

[4] = system: mitochondria; assay: Cytochrome c release from isolated mitochondria (ELISA); assay type: biochemical, mouse; settings: for cytochrome c release by peptide or protein alone: BIDBH3 at 10 μM, other concentrations not stated
Method: as §1, §2

[5] = target: T3, GST-BCL-2 (Homo sapiens, UniProt P10415); assay: BH3 peptide displacement from GST-BCL-2 by fluorescence polarization; assay type: binding; settings: for IC50: read-out: IC50 (nM), BID Displacement
T3 construct: a GST-BCL-2 fusion protein lacking the C-terminal transmembrane domain was utilized; made in house; host or cells: E. coli BL21 DE3
T3 sequence (P10415 1-218 limits assumed): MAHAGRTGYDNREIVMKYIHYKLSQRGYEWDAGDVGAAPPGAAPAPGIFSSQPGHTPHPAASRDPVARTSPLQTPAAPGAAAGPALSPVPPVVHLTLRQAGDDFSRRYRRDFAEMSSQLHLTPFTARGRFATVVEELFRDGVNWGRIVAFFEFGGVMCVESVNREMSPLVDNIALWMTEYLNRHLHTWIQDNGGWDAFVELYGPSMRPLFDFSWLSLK
Description: (§5) To determine Kd for peptide binding to BCL-2, a GST-BCL-2 fusion protein lacking the C-terminal transmembrane domain was utilized. Peptides were synthesized with a fluorescein amino-terminus using an AHA linker. […] An increase in fluorescence polarization measured on a Perkin-Elmer LS 50B luminescence spectrophotometer was quantitated to calculate binding. A non-linear fit to a sigmoidal dose-response curve utilized the program Origin 6.0 to determine Kd. […] Data were fitted to a sigmoidal curve as above, and IC50 determined.
(§6) GST-BCL-2δC21 fusion proteins were induced in BL21 DE3 by 0.1 mM IPTG. The bacterial pellets were resuspended in lysis buffer (1 mg/ml lysozyme/1% Triton X-100/0.1 mg/ml PMSF/2 μg/ml aprotinin/2 μg/ml leupeptine/1 μg/ml pepstatin A in PBS) and sonicated. After centrifugation at 20,000×g for 20 min, the supernatant was applied to glutathione-agarose beads (Sigma). The beads were washed with PBS and treated with 50 mM glutathione/50 mM TrisHCl, pH8.0 to elute protein. Eluate was dialyzed against binding buffer and concentrated using Amicon centrifugal concentrating devices.

[6] = Circular dichroism, α-helical content; assay type: physicochemical; settings: CD, 50 mM potassium phosphate pH 7, 20° C.
Method: Circular dichroism (CD) spectra were obtained on a Jasco J-710 spectropolarimeter at 20° C. using the following standard measurement parameters: wavelength, 190-260 nm; step resolution, 0.5 nm; speed, 20 nm/sec; accumulations, 10; response, 1 sec; band width, 1 nm; path length, 0.1 cm. Stock solutions of peptide were dissolved in deionized water and concentrations determined by amino acid analysis. Samples were then diluted in 50 mM potassium phosphate pH 7 to a calculated final concentration of 50 μM. The CD spectrum of each sample was measured in triplicate and a background spectrum of diluent alone was subtracted. For comparison, the subtracted CD spectra were normalized to 35 μM based on repeat peptide concentration determination by amino acid analysis of the diluted peptide solutions. The α-helical content of each peptide was calculated by dividing the mean residue ellipticity [q]222obs by the reported [q]222obs for a model helical decapeptide (Yang et al., 1986).

[7] = target: T3, GST-BCL-2; assay: Fluorescence polarization binding of fluoresceinated BH3 peptides to GST-BCL-2; settings: for Kd: 25 nM fluoresceinated peptide, GST-BCL-2 titration, 37° C., read-out: Kd (nM), BCL-2 Binding
Description: as §5, §6

Molecule: CC[C@H](C)[C@H](NC(=O)[C@H](CC(N)=O)NC(=O)[C@H](CCCNC(=N)N)NC(=O)[C@@H](NC(=O)[C@@H](NC(=O)[C@H](CC(=O)O)NC(=O)[C@@H](N)CCC(=O)O)[C@@H](C)CC)[C@@H](C)CC)C(=O)N[C@@H](C)C(=O)N[C@@H](CCCNC(=N)N)C(=O)N[C@@H](Cc1c[nH]cn1)C(=O)N[C@@H](CC(C)C)C(=O)N[C@@H](C)C(=O)N[C@@H](CCC(N)=O)C(=O)N[C@H](C(=O)NCC(=O)N[C@@H](CC(=O)O)C(=O)N[C@@H](CO)C(=O)N[C@@H](CCSC)C(=O)N[C@@H](CC(=O)O)C(=O)N[C@@H](CCCNC(=N)N)C(=O)O)C(C)C [BIDBH3]
cytochrome c release from mitochondria with overexpressed BCL-2, agent alone [1]: failing to release cytochrome c | oligomerization of BAX [2]: could also induce oligomerization of BAX | BAK oligomerization [3]: induces BAK oligomerization | concentration required for near total release of cytochrome c [4]: 10 µM | cytochrome c release, Bak +/+ vs. −/− mitochondria ([4]; 100 μM peptide, liver mitochondria): BAK is required for the release of cytochrome c | cytochrome c release by peptide or protein alone [4]: capable of initiating cytochrome c release | displacement of BADBH3 from BCL-2 [5]: does not effectively displace BADBH3 from BCL-2 | % Helicity (222 nm) [6]: 19.5%

Molecule: VIPMAAVKQALREAGDEFEL [BCLXBH3]
IC50 [5]: > 30000 nM | Kd [7]: > 1000 nM

Molecule: CSCC[C@H](NC(=O)[C@H](CCCNC(=N)N)NC(=O)[C@H](CCCNC(=N)N)NC(=O)[C@H](CC(C)C)NC(=O)[C@H](CCC(=O)O)NC(=O)[C@H](CCCNC(=N)N)NC(=O)CNC(=O)[C@H](Cc1ccc(O)cc1)NC(=O)[C@H](CCCNC(=N)N)NC(=O)[C@H](CCC(N)=O)NC(=O)[C@H](C)NC(=O)[C@H](C)NC(=O)[C@H](Cc1c[nH]c2ccccc12)NC(=O)[C@H](CC(C)C)NC(=O)[C@@H](N)CC(N)=O)C(=O)N[C@@H](CO)C(=O)N[C@@H](CC(=O)O)C(=O)N[C@@H](CCC(=O)O)C(=O)N[C@@H](Cc1ccccc1)C(=O)N[C@H](C(=O)N[C@@H](CC(=O)O)C(=O)N[C@@H](CO)C(=O)N[C@@H](Cc1ccccc1)C(=O)N[C@@H](CCCCN)C(=O)N[C@@H](CCCCN)C(=O)O)C(C)C [BADBH3]
restoration of cytochrome c release to BIDBH3 and BIMBH3 ([1]; 100 μM BADBH3): to levels observed for wt mitochondria | restoration of sensitivity to myrBID ([1]; 200 μM BADBH3): markedly restores their sensitivity to even 1 nM myrBID | lowest concentration with measurable activity in inhibiting BCL-2 and enabling cytochrome c release by myrBID ([1]; FL5.12-BCL-2 mitochondria): 1 µM | capacity to overcome BCL-2 protection [1]: most prominently demonstrates the capacity to overcome BCL-2 protection | oligomerization of BAX [2]: not | BAK oligomerization [3]: unable to induce BAK oligomerization | cytochrome c release by peptide or protein alone [4]: inactive in this assay | cytochrome c release by peptide alone ([4]; even at 100 μM): cannot activate BAK or release cytochrome c | displacement of BIDBH3 from BCL-2 [5]: can efficiently displace pre-bound BIDBH3 peptide from BCL-2 | affinity for BCL-2 relative to BIDBH3 peptide [7]: approximately 5 fold | % Helicity (222 nm) [6]: 23.9%

B1: myrBID: recombinant p7/myrp15, myristoylated BID complex (protein, UniProt P55957 1-195, looked up)
BH3-interacting domain death …: MDCEVNNGSSLRDECITNLLVFGFLQSCSDNSFRRELDALGHELPVLAPQWEGYDELQTDGNRSSHSRLGRIEADSESQEDIIRNIARHLAQVGDSMDRSIPPGLVNGLALQLRNTSRSEEDRNRDLATALEQLLQAYPRDMEKEKTMLVLALLLAKKVASHTPSLLRDVFHTTVNFINQNLRTYVRSLARNGMD
modifications: myristoylated; p7/p15 cleaved complex
cytochrome c release from mitochondria with overexpressed BCL-2, agent alone [1]: failing to release cytochrome c | concentration required for near total release of cytochrome c [4]: 0.01 µM | cytochrome c release by peptide or protein alone [4]: capable of initiating cytochrome c release

Further lines, with some results ahead:

binding to BCL-2 [7]: did not bind detectably | % Helicity (222 nm) [6]: 5.1%
Molecule: CC[C@H](C)[C@H](NC(=O)[C@H](CCCCN)NC(=O)[C@H](CCCNC(=N)N)NC(=O)[C@H](CC(C)C)NC(=O)[C@H](CCC(N)=O)NC(=O)[C@H](C)NC(=O)[C@H](C)NC(=O)[C@H](Cc1ccccc1)NC(=O)[C@H](CCC(=O)O)NC(=O)[C@@H]1CCCN1C(=O)[C@@H]1CCCN1C(=O)[C@H](CC(C)C)NC(=O)[C@H](CCC(=O)O)NC(=O)[C@H](C)N)C(=O)NCC(=O)N[C@@H](CC(=O)O)C(=O)N[C@@H](CCCCN)C(=O)N[C@H](C(=O)N[C@@H](Cc1ccc(O)cc1)C(=O)N[C@@H](CS)C(=O)O)C(C)C [NOXAABH3]
displacement of BIDBH3 from BCL-2 [5]: did not bind detectably to BCL-2 or displace BIDBH3 from BCL-2

IC50 [5]: 4920 nM | Kd [7]: 485 nM | % Helicity (222 nm) [6]: 8.5%
Molecule: CC[C@H](C)[C@H](NC(=O)[C@H](CS)NC(=O)[C@H](C)NC(=O)[C@H](CC(C)C)NC(=O)[C@H](CCCNC(=N)N)NC(=O)[C@H](CC(C)C)NC(=O)[C@H](C)NC(=O)[C@H](CC(C)C)NC(=O)[C@H](C)NC(=O)[C@H](CC(=O)O)NC(=O)[C@H](CO)NC(=O)CNC(=O)[C@H](CCC(=O)O)NC(=O)[C@@H](N)CCSC)C(=O)NCC(=O)N[C@@H](CC(=O)O)C(=O)N[C@@H](CCC(=O)O)C(=O)N[C@@H](CCSC)C(=O)N[C@@H](CC(=O)O)C(=O)N[C@H](C(=O)O)C(C)C [BIKBH3]
restoration of cytochrome c release by myrBID ([1]; 100 μM BIKBH3): restore near-total cytochrome c release | capacity to overcome BCL-2 protection [1]: significant, but lesser, potency | displacement of BIDBH3 from BCL-2 [5]: demonstrate the ability to displace BIDBH3

binding to BCL-2 [7]: did not bind detectably | % Helicity (222 nm) [6]: 11.6%
Molecule: CC[C@H](C)[C@H](NC(=O)[C@H](CCCNC(=N)N)NC(=O)[C@H](CCCNC(=N)N)NC(=O)[C@H](CC(C)C)NC(=O)[C@H](CCC(N)=O)NC(=O)[C@H](C)NC(=O)[C@H](CS)NC(=O)[C@H](CCC(=O)O)NC(=O)[C@H](CC(=O)O)NC(=O)[C@H](CCCCN)NC(=O)[C@H](CC(C)C)NC(=O)[C@H](CC(=O)O)NC(=O)[C@H](C)NC(=O)[C@@H]1CCCN1)C(=O)NCC(=O)N[C@@H](CC(=O)O)C(=O)N[C@@H](CCCCN)C(=O)N[C@H](C(=O)N[C@@H](CC(N)=O)C(=O)N[C@@H](CC(C)C)C(=O)O)C(C)C [NOXABBH3]
displacement of BIDBH3 from BCL-2 [5]: did not bind detectably to BCL-2 or displace BIDBH3 from BCL-2
